This note sets out measurements from ChEMBL document CHEMBL5034015, “Structure-Based Optimization of 3-Phenyl-N-(2-(3-phenylureido)ethyl)thiophene-2-sulfonamide Derivatives as Selective Mcl-1 Inhibitors” (J Med Chem, 2021).

What is called IC50 is the concentration that gives 50% inhibition. By Ki is commonly meant the equilibrium dissociation constant of an inhibitor or competing ligand from its target. As a reminder, the inhibition is the relative decrease from the control value, in per cent.

Activity calls are given as the source filed them.

Data set [1] deals with T1, Bcl-2-like protein 1 (Homo sapiens, UniProt Q07817). The data set can be described thus: Inhibition of biotinylated Bim BH3 peptide binding to GST-tagged human Bcl-xl expressed in Escherichia coli BL21 (DE3) incubated for 1 hr by ELISA. Background: ELISA stands for enzyme-linked immunosorbent assay.
T1 sequence (Q07817 whole entry): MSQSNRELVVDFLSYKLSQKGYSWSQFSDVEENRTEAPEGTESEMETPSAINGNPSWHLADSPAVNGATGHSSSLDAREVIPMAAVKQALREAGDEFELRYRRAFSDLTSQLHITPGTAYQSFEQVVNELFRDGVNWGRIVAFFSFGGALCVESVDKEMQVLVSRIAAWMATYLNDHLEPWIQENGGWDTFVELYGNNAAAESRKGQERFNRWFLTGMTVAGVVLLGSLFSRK
Data set [2] deals with T1, Bcl-2-like protein 1. The data set can be described thus: Inhibition of FITC-labeled BH3 peptide binding to Bcl-xl (unknown origin) expressed in Escherichia coli BL21 (DE3) incubated for 0.5 hrs by TR-FRET assay. Background: Time-resolved FRET reads energy transfer from a long-lived donor to a nearby acceptor.
Data set [3] deals with RS4-11. Nature of the data set: Antitumor activity against human RS4-11 cells xenografted in NODSCID mouse assessed as inhibition of tumor growth at 12.5 mg/kg, ip administered every 2 days for 22 days and measured every 3 days relative to control. Format: functional. Also noted: scale not given: the % may be the effect or the level left. Particulars: time 22 day. A general note: Xenograft models place foreign cells or tissue in a host animal.

For data set [4], the system named is RS4-11. Nature of the data set: Antitumor activity against human RS4-11 cells xenografted in NOD/SCID mouse assessed as inhibition of tumor growth at 25 mg/kg, ip administered every 2 days for 22 days and measured every 3 days relative to control. Particulars: time 22 day. Set-up: scale not given: the % may be the effect or the level left. The data set is classed as functional.

Data set [5] concerns RS4-11. Nature of the data set: Antitumor activity against human RS4-11 cells xenografted in NOD/SCID mouse assessed as reduction in tumor volume at 50 mg/kg, ip administered every 2 days for 22 days and measured every 3 days relative to control. The data set is classed as functional. Set-up: scale not given: the % may be the effect or the level left. Particulars: time 22 day.

The target in data set [6] is T1, Bcl-2-like protein 1. The data set can be described thus: Binding affinity to full length human Bcl-xl expressed in Escherichia coli BL21 (DE3) at up to 100 uM preincubated for 30 mins followed by 5-FAM-QEDIIIINIARHLAQVGDSMD-RSIPPG tracer addition and measured after 20 mins by fluorescence polarization assay. Particulars: dose microM <=100, time 50.0 min.
Data set [7] has as its system MCF7. Nature of the data set: Inhibition of Bcl-2/Bim interaction in human MCF7 cells assessed as disruption of Bcl-2/Bim complex at 10 uM measured after 24 hrs by co-immunoprecipitation based western blot analysis relative to control. The data set is classed as cell-based.
Data set [8] concerns HEK-293T. The data set can be described thus: Cytotoxicity against HEK293T cells assessed as reduction in cell viability incubated for 48 hrs by CCK8 assay. Particulars: Homo sapiens.
The test system of data set [9] is RS4-11. The data set can be described thus: cells. Particulars: Homo sapiens, RS4-11, 48 h.
Description: Cytotoxicity against human RS4-11 cells assessed as inhibition of cell growth incubated for 48 hrs by CCK8 assay
Data set [10] deals with Apoptosis regulator Bcl-2 (Homo sapiens, UniProt P10415). Nature of the data set: Binding affinity to full length human Bcl-2 expressed in Escherichia coli BL21 (DE3) at up to 100 uM preincubated for 30 mins followed by 5-FAM-QEDIIIINIARHLAQVGDSMD-RSIPPG tracer addition and measured after 20 mins by fluorescence polarization assay. Particulars: dose microM <=100, time 50.0 min.
Chain of Apoptosis regulator Bcl-2 (P10415 whole entry): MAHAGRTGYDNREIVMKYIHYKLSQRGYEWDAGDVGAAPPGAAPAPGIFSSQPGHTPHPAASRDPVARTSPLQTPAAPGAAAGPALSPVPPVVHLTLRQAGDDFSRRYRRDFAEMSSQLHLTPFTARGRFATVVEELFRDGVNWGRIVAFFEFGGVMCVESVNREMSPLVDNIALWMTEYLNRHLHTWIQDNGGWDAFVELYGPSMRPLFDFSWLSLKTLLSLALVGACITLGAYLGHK

The test system of data set [11] is RS4-11. The data set can be described thus: Induction of apoptosis in human RS4-11 cells assessed as increase in cleaved caspase 3 expression incubated for 48 hrs by western blot analysis. The data set is classed as functional, cell-based.
Data set [12] concerns RS4-11. The data set can be described thus: Induction of apoptosis in human RS4-11 cells assessed as increase in cleaved caspase 9 expression incubated for 48 hrs by western blot analysis. The data set is classed as functional, cell-based.
Data set [13] has as its system RS4-11. Nature of the data set: Induction of apoptosis in human RS4-11 cells assessed as early apoptotic cells at 20 uM measured after 24 hrs by Annexin V/7-AAD and MitoSense Red staining based flow cytometry analysis relative to control (reference value: 3.75 %). The data set is classed as functional.
Data set [14] concerns RS4-11. The data set can be described thus: Induction of apoptosis in human RS4-11 cells assessed as late apoptotic cells at 20 uM measured after 24 hrs by Annexin V/7-AAD and MitoSense Red staining based flow cytometry analysis relative to control (reference value: 0.99 %). Format: functional.
Data set [15] deals with Induced myeloid leukemia cell differentiation protein Mcl-1/Bcl-2-like protein 11 (Homo sapiens) (UniProt Q07820+O43521). The data set can be described thus: Inhibition of MCL1/Bim interaction in human MCF7 cells assessed as disruption of MCL1/Bim complex at 10 uM measured after 24 hrs by co-immunoprecipitation based western blot analysis relative to control. Format: cell-based.
Chain of Induced myeloid leukemia cell differentiation protein Mcl-1/Bcl-2-like protein 11 (Homo sapiens) (O43521 whole entry, looked up): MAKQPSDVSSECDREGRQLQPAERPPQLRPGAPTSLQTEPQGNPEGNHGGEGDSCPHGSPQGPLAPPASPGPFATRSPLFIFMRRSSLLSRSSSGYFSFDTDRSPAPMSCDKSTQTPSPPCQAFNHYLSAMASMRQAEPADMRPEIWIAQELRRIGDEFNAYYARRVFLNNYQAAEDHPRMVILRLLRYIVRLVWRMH
Chain of Induced myeloid leukemia cell differentiation protein Mcl-1/Bcl-2-like protein 11 (Homo sapiens) (Q07820 whole entry, looked up): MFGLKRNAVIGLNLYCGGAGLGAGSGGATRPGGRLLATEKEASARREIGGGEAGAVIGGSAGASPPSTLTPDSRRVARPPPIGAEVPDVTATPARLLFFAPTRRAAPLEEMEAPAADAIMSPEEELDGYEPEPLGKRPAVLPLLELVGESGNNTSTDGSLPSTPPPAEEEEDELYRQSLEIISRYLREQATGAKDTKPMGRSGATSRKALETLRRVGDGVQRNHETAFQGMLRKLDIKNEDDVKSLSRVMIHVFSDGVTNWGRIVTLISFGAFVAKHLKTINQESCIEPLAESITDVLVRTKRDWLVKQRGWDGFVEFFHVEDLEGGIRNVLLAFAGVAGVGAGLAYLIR

Data set [16] deals with Induced myeloid leukemia cell differentiation protein Mcl-1 (Homo sapiens, UniProt Q07820). The data set can be described thus: Binding affinity to full length human MCL1 expressed in Escherichia coli BL21 (DE3) assessed as inhibition constant preincubated for 30 mins followed by 5-FAM-QEDIIIINIARHLAQVGDSMD-RSIPPG tracer addition and measured after 20 mins by fluorescence polarization assay.
Chain of Induced myeloid leukemia cell differentiation protein Mcl-1 (Q07820 whole entry): as the sequence (Q07820 whole entry, looked up) above

Data set [17] relates to RS4-11. Nature of the data set: Antitumor activity against human RS4-11 cells xenografted in SCID mouse assessed as reduction in Ki-67 positive cells administered intraperitoneally for 19 days by immunohistochemical analysis. Particulars: time 19.0 day. Format: functional, cell-based.
The subject of data set [18] is RS4-11. Nature of the data set: Induction of apoptosis in human RS4-11 cells assessed as viable cells at 20 uM measured after 24 hrs by Annexin V/7-AAD and MitoSense Red staining based flow cytometry analysis relative to control (reference value: 94.15 %). Format: functional. Particulars: read-out: Activity.
For data set [19], the system named is HL-60. Nature of the data set: cells. Particulars: Homo sapiens, HL-60, 48 h.
Description: Cytotoxicity against human HL-60 cells assessed as inhibition of cell growth incubated for 48 hrs by CCK8 assay
The subject of data set [20] is RS4-11. The data set can be described thus: Induction of apoptosis in human RS4-11 cells assessed as increase in cleaved PARP expression incubated for 48 hrs by western blot analysis. Format: functional, cell-based.
The subject of data set [21] is RS4-11. The data set can be described thus: Induction of apoptosis in human RS4-11 cells assessed as necrotic cells at 20 uM measured after 24 hrs by Annexin V/7-AAD and MitoSense Red staining based flow cytometry analysis relative to control (reference value: 1.11 %). Format: functional.
Data set [22] can be described thus: Toxicity in NOD/SCID mouse xenografted with human RS4-11 cells assessed as reduction in body weight at 12.5 to 50 mg/kg, ip administered every 2 days for 22 days. Format: organism-based. Particulars: in vivo, 528 h, dose 12.5-50 mg/kg, time 22 day.
In data set [23] the test system is HeLa. Nature of the data set: cells. Particulars: Homo sapiens, 48 h.
Description: Cytotoxicity against human HeLa cells assessed as inhibition of cell growth incubated for 48 hrs by CCK8 assay

Regarding `O=C(c1ccccc1O)c1[nH]c(Cl)c(Cl)c1-n1c(C(=O)c2ccccc2O)cc(Cl)c1Cl`, the IC50 in data set [1] is above 80 µM.
In turn, `Cc1cc(OCCCc2c3n(c4c(-c5c(C)nn(C)c5C)c(Cl)ccc24)CCCN(c2cc(C(=O)O)c4ccn(C)c4c2)C3=O)cc(C)c1Cl` registered an inhibition constant Ki in data set [2] above 10 µM.
Consider `COc1ccc(Oc2cc(C)ccc2-c2ccsc2S(=O)(=O)NCCNC(=O)Nc2cc(C(F)(F)F)cc(C(F)(F)F)c2)cc1OC`, for which the Activity was above 60% in data set [3]; above 60% in data set [4]; 75% in data set [5]; “Dose-Dependent Effect” in data set [11]; “Dose-Dependent Effect” in [12]; 4.15% in data set [13]. Further, the Activity in data set [14] is 94.21%; in [17], “Dose-Dependent Effect”; in data set [20] it was “Dose-Dependent Effect”; in [21], 0.24%; in [22], “Non-Toxic”. Also, the outcome in [6] and in data set [10] was inactive. For the same molecule, the inhibition result in data set [7] is “inactive”. Further, the 50% inhibitory concentration (IC50) in data set [8] was 9 µM; in data set [9] it was 5.6 µM; in data set [19], 5.3 µM; in [23], 10.2 µM. Besides, the inhibition in data set [15] amounted to 30%. For the same molecule, the Ki in data set [16] stood at 4.9 µM. Besides, in [18], the viability at 20 µM worked out at 1.39%.
